Experimental data taken from US7425579B2, “Methods for inhibiting activity of polyamine transporters” (Universite Laval, priority 1998, dated 2008).

How the values were obtained:
[1] = tested on: polyamine transport system; test: Time course of [3H]spermidine accumulation in T-47D cells; format: cell-based, human
Description: In particular, exponentially growing T-47D (A) or ZR-75-1 cells (B and C) were transferred to serum-free medium containing 5 μM [^3H]spermidine, and either 200 μM cycloheximide (CHX) (●), 100 μM BNSD-X (□), CHX plus BNSD-X (▪), or vehicle only (∘). Cells were incubated for the time intervals indicated prior to harvesting for detrmination of total intracellular radioactivity. ZR-75-1 cells were either pre-incubated for 48 h in the absence (panel B) or presence of 1 mM DFMO (panel C) prior to the experiment shown; DFMO was also included during the labeling period in the appropriate group. Data are presented as the mean±SD for triplicate cultures from one representative experiment;
The effect of BNSD-X on the time course of [^3H]spermidine accumulation was determined in ZR-75-1 and T-47D cells pre-incubated in the presence or absence of DFMO before addition of radioactive substrate and the transport inhibitor. Subgroups of cell cultures were also treated with cycloheximide in order to prevent the polyamine-dependent induction of ODC antizyme, which rapidly down-regulates polyamine transport activity through an unknown mechanism (Lessard et al. (1995) J. Biol. Chem. 270, 1685-1694; Coffino et al. (2001) Nat Rev Mol Cell Biol. 2:188-194). As expected, [^3H]spermidine accumulation reached a plateau after approximately 2 h in both […], but increased in an approximately linear fashion for the first 6-8 h in the presence of cycloheximide, consistent with relief from feedback repression of polyamine transport as a result of inhibition of antizyme synthesis. At a BNSD-X:spermidine ratio of 20:1, the triamine dimer decreased net [^3H]spermidine uptake in T-47D cells after 8 h by 92% and 80% in the presence or absence of cycloheximide, respectively (FIG. 7A), whereas it inhibited spermidine accumulation by 90 and 65%, respectively, under the same conditions in ZR-75-1 cells (FIG. 7B). […]

[2] = Bioavailability of BNSD-X in drinking water: plasma and erythrocyte concentrations; format: in vivo, CD-1 mice; conditions: for Erythrocyte concentration, Spermidine / Erythrocyte concentration, Spermine / Plasma concentration, BNSD-X / Plasma concentration, Putrescine / Plasma concentration, Spermidine / Plasma concentration, Spermine: mean±S.E.
Description: To determine the bioavailability of BNSD-X, escalating doses of BNSD-X were dissolved in the drinking water (0, 0.25, 0.5, 1, 2 and 4%, w/v) and were made available to CD-1 mice (n=6/group) ad libitum. Animals were sacrificed after 96 h, and blood was immediately collected to determine the concentration of BNSD-X and polyamines in plasma and erythrocytes by HPLC using the dansylation method (Kabra et al. (1986) J. Chromatogr. 380:19-32).
The suitability of BNSD-X as an in vivo inhibitor of polyamine transport was next assessed in the mouse. We first determined the bioavailability of the compound by adding escalating doses of BNSD-X (0, 0.25, 0.5, 1.0, 2.0 and 4.0% (w/v)) in the drinking water of CD-1 mice. Mice were sacrificed after 4 d and the concentration of BNSD-X and polyamines was determined in plasma and erythrocytes (Tables 3 and 4). […] The plasma concentration reached by the chronic drinking of a 1% (w/v) solution of BNSD-X is thus approximately equal to the Ki value of the drug as an inhibitor of spermidine uptake in breast cancer cells (see Table 1). The drug had no effect on the plasma concentration of either putrescine, spermidine or spermine. […] These pharmacokinetic properties indicate that BNSD-X can be administered by a very convenient route to animals up to a dose sufficient in principle to inhibit the major fraction of the uptake of spermidine from the plasma.

[3] = 0.25% (w/v) BNSD-X in drinking water, 96 h
[4] = 0.50% (w/v) BNSD-X in drinking water, 96 h
[5] = 1.0% (w/v) BNSD-X in drinking water, 96 h

## NCCCN(CCCN)Cc1ccc(CN(CCCN)CCCN)cc1 [28a, N,N,N′,N′-tetrakis-(3-aminopropyl)-p-diaminoxylene]
[1]; 20-fold excess of BNSD-X, T-47D and ZR-75-1
  residual rate of spermidine influx, of the maximal rate of spermidine accumulation: 8-10%
[1]; T-47D, after 8 h, BNSD-X:spermidine 20:1
  decrease of net [3H]spermidine uptake, without cycloheximide: 80%
[1]; T-47D, after 8 h, BNSD-X:spermidine 20:1 (100 μM:5 μM), 200 μM cycloheximide
  decrease of net [3H]spermidine uptake, with cycloheximide: 92%
[2]; [3]
  Erythrocyte concentration, Spermidine: 1975 ± 236 nmol/L packed erythrocytes
  Erythrocyte concentration, Spermine: 60 ± 14 nmol/L packed erythrocytes
  Plasma concentration, BNSD-X: 6 ± 3 nM
  Plasma concentration, Putrescine: 108 ± 11 nM
  Plasma concentration, Spermidine: 147 ± 6 nM
  Plasma concentration, Spermine: 24 ± 1 nM
[2]; [4]
  Erythrocyte concentration, Spermidine: 2762 ± 560 nmol/L packed erythrocytes
  Erythrocyte concentration, Spermine: 95 ± 12 nmol/L packed erythrocytes
  Plasma concentration, BNSD-X: 32 ± 6 nM
  Plasma concentration, Putrescine: 106 ± 10 nM
  Plasma concentration, Spermidine: 137 ± 18 nM
  Plasma concentration, Spermine: 31 ± 6 nM
[2]; [5]
  Erythrocyte concentration, Spermidine: 2079 ± 291 nmol/L packed erythrocytes
  Erythrocyte concentration, Spermine: 83 ± 23 nmol/L packed erythrocytes
  Plasma concentration, BNSD-X: 129 ± 33 nM
  Plasma concentration, Putrescine: 117 ± 19 nM
  Plasma concentration, Spermidine: 168 ± 15 nM
  Plasma concentration, Spermine: 38 ± 3 nM
[2]; BNSD-X concentrations higher than 1.0% (2.0 and 4.0%) in drinking water
  water consumption: decreased drastically
[2]; BNSD-X in drinking water, 96 h
  effect on the plasma concentration of putrescine, spermidine or spermine: no effect
[2]; BNSD-X up to 1.0% in drinking water
  accumulation into erythrocytes: did not accumulate into erythrocytes
[2]; in drinking water
  oral absorption: readily absorbed orally
